Columns and labels:
[1] = tested on: mGAR; test: Inhibition of tsr methylation activity by test compounds in 96 well plate, mGAR titration; type: biochemical; conditions: compound at 50 μM, 25° C., 30 minutes, increasing amounts of mGAR; FIG. 7
Experimental: The Ki value for a compound is determined by relating the Km in the presence and the Km in the absence of compound using the equation: […]
(§1) In an preferred format, enzyme binding and activity is measured by measuring the Michealis constant (Km) of the enzymatic reaction in the absence and presence of a constant concentration of the test compound. Increasing amounts of target RNA are incubated with the modifying enzyme and the yield of modified RNA product is measured for each point. Data from this substrate titration are fitted to a saturation curve by non-linear regression. The Michaelis constant Km is determined from the curve-fitting by routine methods.
Test compounds were assayed in a 96 well plate for inhibition of tsr methylation activity at 50 μM. Compounds were incubated at 25° C. for 30 minutes in the presence of [^3H]SAM and enzyme, and increasing amounts of mGAR were added. RNA was precipitated with 2% TFA, filtered, and scintillation counted in a Wallac Trilux instrument.

[2] = tested on: E. coli GAR; test: TSR methyltransferase methylation of GAR RNA with [3H]SAM, titration of inhibitor; type: biochemical; conditions: 23S (or GAR), competition with methyltransferase at A-1067; FIG. 6; read-out: affinity (binding measured by following inhibition of methylation)
Experimental: RNA (0-2 μM) was incubated in 25 mM HEPES-KOH, pH 7.5, 25 mM NH4Cl, 5 mM MgCl2, 5 mM DTT with test compounds. The methylation reaction was started by adding 8 pmol TSR methyltransferase and 1 μCi [^3H]SAM (Amersham-Pharmacia). The final assay volume was 100 μl. The reaction was incubated 15 min at 25° C. and stopped by adding 1 vol. 2% TFA. The TFA precipitate was filtered through a 96-well glassfiber filterplate (Millipore Multiscreen FB 1.0 μM Glass Fiber Type B Filter). The filters were washed with 2 vol. of 2% TFA. 50 μl scintillation cocktail (Wallac Optiszint) was added to each well of the dried filter plate and incorporated [^3H]-radioactivity was determined in a Wallac Trilux scintillation counter.
The L11 ribosomal protein is an integral part of the GAR, and its presence inhibits methyltransferase activity [Bechthold & Floss, 1994]. Various concentrations of L11 were incubated with E. coli GAR and [^3H]SAM as described above. As expected, methylation was inhibited as L11 concentration increased.
Methyltransferase and thiostrepton thus compete for binding at A-1067, and binding of thiostiepton to 23S (or GAR) can be measured by following inhibition of methylation.

[3] = target: tsr methyltransferase (thiostrepton resistance methyltransferase); test: Inhibition of tsr methyltransferase methylation of mGAR (GTPase activating region of 23S rRNA): [3H]SAM incorporation, mGAR titration, 96-well (FIG. 7); type: biochemical, Streptomyces azureus; conditions: compounds at 50 μM, 25° C., 30 min, increasing mGAR, Ki=[I]/((Km(I)/Km)−1), tsr gene cloned, overexpressed in E. coli, read-out: TSR methyltransferase (GAR RNA methylation) Ki
Experimental: The Km for each titration is determined by fitting the data to the equation
Bmax: incorporation at RNA substrate saturation in cpm.
[RNA]: concentration of target RNA.
The Ki value for a compound is determined by relating the Km in the presence and the Km in the absence of compound using the equation:
[I]: concentration of the inhibitory compound
Km(I): Michaelis constant in the presence of inhibitor
Km: Michaelis constant in the absence of inhibitor
as §1, with “methods. […]” for “methods.”
RNA (0-2 μM) was incubated in 25 mM HEPES-KOH, pH 7.5, 25 mM NH4Cl, 5 mM MgCl2, 5 mM DTT with test compounds. […] 50 μl scintillation cocktail (Wallac Optiszint) was added to each well of the dried filter plate and incorporated [^3H]-radioactivity was determined in a Wallac Trilux scintillation counter. […]

[4] = tested on: rRNA; test: rRNA methylation by Erm E in the presence of erythromycin; type: biochemical; conditions: erythromycin 200 μM
Experimental: Erm E is inhibited by erythromycin (FIG. 21). Erythromycin inhibits enzyme activity most noticably when the RNA is folded in the presence of erythromycin (FIG. 21). One embodiment of the invention may therefore involve folding of the RNA in the presence of compound before measuring the activity of the methyltransferase on the RNA.
The reaction was performed in 50 μl 50 mM Tris/Cl, pH 7.5, 4 mM MgCl2, 40 mM KCl, 10 mM DTT, for 120 min at 37° C. with 0.04 μM rRNA and 6 μCi [3H]SAM. The erythromycin concentration was 200 μM.

How did the “inhibition of methyltransferase (methylation)” value [1] turn out when `NC[C@@H]1O[C@H](O[C@H]2[C@@H](O)[C@H](O[C@@H]3[C@@H](O)[C@H](N)C[C@H](N)[C@H]3O[C@H]3O[C@H](CN)[C@@H](O)[C@H](O)[C@H]3N)O[C@@H]2CO)[C@H](N)[C@@H](O)[C@@H]1O` [neomycin] was run?
The value was “significant inhibition”.

For `C=C(NC(=O)C(=C)NC(=O)c1csc(C2=N[C@@H]3c4csc(n4)[C@H]4NC(=O)c5csc(n5)[C@H]([C@](C)(O)[C@@H](C)O)NC(=O)[C@H]5CSC(=N5)/C(=C/C)NC(=O)[C@H]([C@@H](C)O)NC(=O)c5csc(n5)[C@]3(CC2)NC(=O)[C@H](C)NC(=O)C(=C)NC(=O)[C@H](C)NC(=O)[C@H]([C@@H](C)CC)N[C@@H]2C=Cc3c([C@H](C)O)cc(nc3[C@H]2O)C(=O)O[C@@H]4C)n1)C(N)=O` [thiostrepton], which Kd [2] is on record?
Its Kd is 1.1 µM.

How did the Ki [3] turn out when `NC[C@@H]1O[C@H](O[C@H]2[C@@H](O)[C@H](O[C@@H]3[C@@H](O)[C@H](N)C[C@H](N)[C@H]3O[C@H]3O[C@H](CN)[C@@H](O)[C@H](O)[C@H]3N)O[C@@H]2CO)[C@H](N)[C@@H](O)[C@@H]1O` [Neomycin, neomycin] was run?
The Ki was 9 µM.

What does the source list for `CC[C@H]1OC(=O)[C@H](C)[C@@H](O[C@H]2C[C@@](C)(OC)[C@@H](O)[C@H](C)O2)[C@H](C)[C@@H](O[C@@H]2O[C@H](C)C[C@H](N(C)C)[C@H]2O)[C@](C)(O)C[C@@H](C)C(=O)[C@H](C)[C@@H](O)[C@]1(C)O` [erythromycin]?
refolded rRNA methylation by Erm E ([4]; refolded rRNA 0.04 μM, 120 min at 37° C., FIG. 21): decrease; effect on rRNA methylation by Erm E ([4]; unfolded rRNA): no effect

Source: US20020037516A1, “Assay for identification of a test compound” (priority 2000, published 2002)
